We go through 12 compounds from ChEMBL document CHEMBL3600306, “Sulfonamide bearing pyrazolylpyrazolines as potent inhibitors of carbonic anhydrase isoforms I, II, IX and XII” (Bioorg Med Chem Lett, 2015).

This test concerns the target Carbonic anhydrase 9 (Homo sapiens, UniProt Q16790). Description: Inhibition of human carbonic anhydrase-9 incubated for 10 mins prior to testing by stopped-flow CO2 hydrase assay.

As usually defined, the Ki is a dissociation constant, usually derived from enzyme kinetics or from competition with a known ligand.

`Cc1nn(-c2ccc(S(N)(=O)=O)cc2)c(Cl)c1C1CC(c2ccccc2)=NN1c1ccc(S(N)(=O)=O)cc1` (configuration not stated) yielded a Ki of 71.6 nM.
For `Cc1ccc(C2=NN(c3ccc(S(N)(=O)=O)cc3)C(c3c(C)nn(-c4ccc(S(N)(=O)=O)cc4)c3Cl)C2)cc1` (configuration not stated), the affinity corresponds to a Ki of 70.7 nM.
To `COc1ccc(C2=NN(c3ccc(S(N)(=O)=O)cc3)C(c3c(C)nn(-c4ccc(S(N)(=O)=O)cc4)c3Cl)C2)cc1` (configuration not stated) belongs 52.4 nM.
`Cc1nn(-c2ccc(S(N)(=O)=O)cc2)c(Cl)c1C1CC(c2ccc(F)cc2)=NN1c1ccc(S(N)(=O)=O)cc1` (configuration not stated) gave a Ki of 44.7 nM.
With `Cc1nn(-c2ccc(S(N)(=O)=O)cc2)c(Cl)c1C1CC(c2ccc(Cl)cc2)=NN1c1ccc(S(N)(=O)=O)cc1` (configuration not stated) the figure was 32.9 nM.
As for `Cc1nn(-c2ccc(S(N)(=O)=O)cc2)c(Cl)c1C1CC(c2ccc(Br)cc2)=NN1c1ccc(S(N)(=O)=O)cc1` (configuration not stated), the affinity corresponds to a Ki of 44.4 nM.
For `CC(=O)N1N=C(c2ccccc2)CC1c1c(C)nn(-c2ccc(S(N)(=O)=O)cc2)c1Cl` (configuration not stated), affinity was put at a Ki of 63.1 nM.
`CC(=O)N1N=C(c2ccc(C)cc2)CC1c1c(C)nn(-c2ccc(S(N)(=O)=O)cc2)c1Cl` (configuration not stated) had a Ki of 67.1 nM.
In the case of `COc1ccc(C2=NN(C(C)=O)C(c3c(C)nn(-c4ccc(S(N)(=O)=O)cc4)c3Cl)C2)cc1` (configuration not stated), the affinity, expressed as Ki, was 56.9 nM.
`CC(=O)N1N=C(c2ccc(F)cc2)CC1c1c(C)nn(-c2ccc(S(N)(=O)=O)cc2)c1Cl` (configuration not stated) registered a Ki of 6.9 nM.
Turning to `CC(=O)N1N=C(c2ccc(Cl)cc2)CC1c1c(C)nn(-c2ccc(S(N)(=O)=O)cc2)c1Cl` (configuration not stated), affinity was put at a Ki of 30.8 nM.
As to `CC(=O)N1N=C(c2ccc(Br)cc2)CC1c1c(C)nn(-c2ccc(S(N)(=O)=O)cc2)c1Cl` (configuration not stated), the Ki amounted to 67.2 nM.
